For test [1], the system named is Murine psoriasis vulgaris-like skin inflammation model. In words: IMQ-induced psoriasis vulgaris-like skin inflammation model, keratinocyte proliferation by BrdU incorporation. The test is classed as in vivo, BALB/c mice. To be noted: 25 μM with IMQ cream, day 6; IMQ control 24.5±2.0; FIG. 9 panel B. The protocol: (§1) BALB/c mice (8-weeks old females; n=42) were used in this model system. […] Accordingly, in this model, each BALB/c mice received a daily topical dose (62.5 mg) of commercially available IMQ cream (Imiquimod Cream 5% w/w, Aldara™) on the shaved back and the right ear for 6 consecutive days (n=6); whereas the control mice (normal group) were treated with a control cream (n=6). For treatment, each test peptide was mixed with IMQ cream to give a concentration of 25 μM (n=6 per group). Keratinocyte proliferation was determined by BrdU incorporation. BrdU (Sigma-Aldrich) was reconstituted in DMSO as a stock solution of 80 mM. 10 μl of BrdU mixed with 90 μl of PBS was intraperitoneally injected into each mouse for 24 hr prior to euthanasia.
(§2) Slides were blocked with 10% goat serum for 60 min and then incubated with primary antibody against BrdU (1:50 dilution; GTX42641) for 3 hr at RT. The slides were then incubated with peroxidase-labeled donkey immunoglobulin for 30 min and then incubated with chromogen substrate (3,3′-diaminobenzidine) for 2 min before counterstaining with hematoxylin. Quantification was estimated based on high quality images (1208×960 pixels buffer) captured using a Nikon Eclipse 80i light microscope.

The next test deals with myeloma RPMI 8226 cell. In words: MTT assay, cell viability. The test is classed as cell-based, human. The settings on record: 20 μM peptide, 24 h, serum-free RPMI1640; FIGS. 1-2. The protocol: The multiple myeloma line RPMI8226 or […] Raw264.7 macrophages were cultivated in complex medium (RPMI1640) supplemented with 10% (vol/vol) heat-inactivated fetal calf serum (Invitrogen), 50 μg/mL penicillin, 50 μg/mL streptomycin, and 2 mM L-glutamine at 37° C. in a 5% CO2 atmosphere
RPMI8226 cells or U266 cells were cultured in serum-free RPMI1640 medium for 24 h, and then cells seeded in 48-well culture plates (3×10^5 cells/well) and cultured in 0.5 ml fresh serum-free RPMI1640 medium containing 20 μM peptide for further 24 h. The cell viability was determined by the MTT assay.
50 μL of the MTT stock solution (5 mg MTT dissolved in 1 ml of sterile PBS) was added to each well, and 50 μL of the MTT stock solution was added to 500 μL of medium alone and used as a negative control. Each sample was Incubates at 37° C. for 4 hours. Aliquots (450 μl) from each sample were taken to a new well of 48-well culture plate, adding 100 μL DMSO, mixing thoroughly using the pipette and reacted at 37° C. for 20 min and absorbance was measured at 570 nm.

Test [2] concerns Murine dry eye model. In words: Dry eye animal model, fluorescein eye stain test for corneal injuries. The settings on record: peptide 50 μM topically three times a day for 4 days; for reduction in mean corneal fluorescein staining score compared with vehicle treated control mice: FIG. 3 panel B. The format is in vivo, C57BL/6 mice. The method, then:
(§3) C57BL/6 mice (7-8 weeks old, each weighted about 18 to 25 g) were used in this model system. All mice were maintained in the animal facility in accordance with the procedures approved by Mackay Memorial Hospital Review Board (Taiwan, R.O. C.). All animal experimental procedures were conducted according to the ARVO Statement for the Use of Animals in Ophthalmic and Vision Research.
(§4) Dry eyes were induced by placing mice in a controlled environment chamber (CEC) for 14 days in accordance with procedures previously described by Barabino et al (IVOS (2005) 46(8), 2766-2771). Mice placed in the CEC were exposed to a condition, in which relative humidity (RH) was maintained at <25%, temperature at 20-22° C., and airflow at about 15 L/min, for 12 hours per day. Control mice were kept in a normal environment (RH>50%, no air flow, temperature of 20-22° C.) for the same duration.
(§5) A common artificial tear formulation, 1% carboxymethylcelllulose (CMC) dissolved in balanced salt solution (BSS) was used as the peptide vehicle. Peptide (50 μM) or 1% CMC vehicle was topically administered to eyes three times a day, for 4 days.
Corneal epithelial injury was determined by staining with topical fluorescein (100 mg/ml or 10%; FLUORESCITE™, Alcon Laboratories). For dosing, topical fluorescein (0.6 μL of 0.5% sodium fluorescein dissolved in 4.4 μL BSS per eye) was applied via a micro-pipette to the lateral canthus for 15 sec. Corneal fluorescein staining was examined with a slit-lamp biomicroscope under cobalt blue light and photographed with a digital camera. Data is presented as mean±SD. Dye staining of the cornea was scored in a blinded manner as follows: score 0 for no punctuate staining; score 1 when less than one third of the cornea was stained; score 2 when two thirds or less was stained; and score 3 when more than two thirds was stained.

In test [3] the test system is Murine dry eye model. In words: Dry eye animal model, tear production by phenol red thread test. The format is in vivo, C57BL/6 mice. To be noted: treated for 4 days; P<0.01 versus vehicle treatment; FIG. 4. The method, then: as §3, §4, §5
Tear production was measured with phenol red-impregnated cotton threads (Zone-Quick; Oasis, Glendora, Calif.). The validity of this test in mice was performed as previously described (Dursun et al., Invest Ophthalmol Vis Sci. 2002; 43:632-8). The threads were held with jeweler forceps and placed in the lateral canthus for 60 seconds. The tear production expressed in millimeters of thread wet by the tear and turned red.

The subject of test [4] is Murine psoriasis vulgaris-like skin inflammation model. In words: IMQ-induced psoriasis vulgaris-like skin inflammation model, H&E histology of back skin. The format is in vivo, BALB/c mice. To be noted: 25 μM with IMQ cream, 6 days; IMQ control 122±10.5; FIG. 8 panel B. The protocol:
as §1
Back skin of the mouse was fixed overnight in 4% paraformaldehyde, dehydrated with graded ethanol series, and paraffinized. Fixed samples were deparaffinized in xylene and rehydrated in a graded series of ethanol. Tissues were sliced into 5-μm sections. General histology was performed using hematoxylin and eosin (H&E) (Merck, Rayway, N.J., USA).
as §2

Where no end group is shown, it is not given here. [ ]: non-standard residue; d: D form.

As for “NH2-(D-Asp)-Ile-Thr-Tyr-Val-Arg-Leu-Lys-Phe-COOH ([dD]ITYVRLKF; not fully specified (N-terminus, C-terminus); printed as NH2-(D-Asp)-Ile-Thr-Tyr-Val-Arg-Leu-Lys-Phe-COOH) [9-mer DD, 9-mer analogue, aspartate replaced by D-form aspartate]”, in test [1], the “hyperproliferation of keratinocytes, BrdU-positive cells in the epidermis (labeling index)” value came out at 23.3±2.5%.

For “NH2-Ala-Ile-Thr-Tyr-Val-Arg-Leu-Lys-Phe-COOH (AITYVRLKF; not fully specified (N-terminus, C-terminus); printed as NH2-Ala-Ile-Thr-Tyr-Val-Arg-Leu-Lys-Phe-COOH) [9-mer Da, 9-mer analogue, aspartate replaced by alanine]”, the “myeloma RPMI 8226 cell viability (MTT assay)” value in the test on myeloma RPMI 8226 cell is “sustain part of the inhibitory activity”. Besides, the “reduction in mean corneal fluorescein staining score compared with vehicle treated control mice” value (“reduction” below) with Murine dry eye model [2] was “about 3 fold”. Further, the “tear volume (tear production)” value with Murine dry eye model [3] is “significantly increased”.

“NH2-Asp-Ala-Thr-Tyr-Val-Arg-Leu-Lys-Phe-COOH (DATYVRLKF; not fully specified (N-terminus, C-terminus); printed as NH2-Asp-Ala-Thr-Tyr-Val-Arg-Leu-Lys-Phe-COOH) [9-mer Ia, 9-mer analogue, isoleucine replaced by alanine]”: the “myeloma RPMI 8226 cell viability (MTT assay)” value in the test on myeloma RPMI 8226 cell was “loss of the inhibitory activity”.

In the case of “NH2-Asp-Ile-Ala-Tyr-Val-Arg-Leu-Lys-Phe-COOH (DIAYVRLKF; not fully specified (N-terminus, C-terminus); printed as NH2-Asp-Ile-Ala-Tyr-Val-Arg-Leu-Lys-Phe-COOH) [9-mer Ta, 9-mer analogue, threonine replaced by alanine]”, in the test with myeloma RPMI 8226 cell, the “myeloma RPMI 8226 cell viability (MTT assay)” value is “loss of the inhibitory activity”.

In the case of “NH2-Asp-Ile-Thr-Ala-Val-Arg-Leu-Lys-Phe-COOH (DITAVRLKF; not fully specified (N-terminus, C-terminus); printed as NH2-Asp-Ile-Thr-Ala-Val-Arg-Leu-Lys-Phe-COOH) [9-mer Ya, 9-mer analogue, tyrosine replaced by alanine]”, in the test on myeloma RPMI 8226 cell, the “myeloma RPMI 8226 cell viability (MTT assay)” value is “loss of the inhibitory activity”.

As to “NH2-Asp-Ile-Thr-Tyr-Ala-Arg-Leu-Lys-Phe-COOH (DITYARLKF; not fully specified (N-terminus, C-terminus); printed as NH2-Asp-Ile-Thr-Tyr-Ala-Arg-Leu-Lys-Phe-COOH) [9-mer Va, 9-mer analogue, valine replaced by alanine]”, the “myeloma RPMI 8226 cell viability (MTT assay)” value in the test with myeloma RPMI 8226 cell is on record as “sustain part of the inhibitory activity”. Besides, the “reduction” value with Murine dry eye model [2] is “about 3 fold”. Also, the “tear volume (tear production)” value in the test with Murine dry eye model [3] is on record as “significantly increased”.

On to “NH2-Asp-Ile-Thr-Tyr-Val-Ala-Leu-Lys-Phe-COOH (DITYVALKF; not fully specified (N-terminus, C-terminus); printed as NH2-Asp-Ile-Thr-Tyr-Val-Ala-Leu-Lys-Phe-COOH) [9-mer Ra, 9-mer analogue, arginine replaced by alanine]”, for which the “myeloma RPMI 8226 cell viability (MTT assay)” value in the test with myeloma RPMI 8226 cell is listed as “loss of the inhibitory activity”.

As to “NH2-Asp-Ile-Thr-Tyr-Val-Arg-Ala-Lys-Phe-COOH (DITYVRAKF; not fully specified (N-terminus, C-terminus); printed as NH2-Asp-Ile-Thr-Tyr-Val-Arg-Ala-Lys-Phe-COOH) [9-mer La, 9-mer analogue, leucine replaced by alanine]”, the “myeloma RPMI 8226 cell viability (MTT assay)” value with myeloma RPMI 8226 cell is on record as “loss of the inhibitory activity”.

With “NH2-Asp-Ile-Thr-Tyr-Val-Arg-Leu-Ala-Phe-COOH (DITYVRLAF; not fully specified (N-terminus, C-terminus); printed as NH2-Asp-Ile-Thr-Tyr-Val-Arg-Leu-Ala-Phe-COOH) [9-mer Ka, 9-mer analogue, lysine replaced by alanine]”, the “myeloma RPMI 8226 cell viability (MTT assay)” value with myeloma RPMI 8226 cell is “loss of the inhibitory activity”.

Consider “NH2-Asp-Ile-Thr-Tyr-Val-Arg-Leu-Lys-(D-Phe)-COOH (DITYVRLK[dF]; not fully specified (N-terminus, C-terminus); printed as NH2-Asp-Ile-Thr-Tyr-Val-Arg-Leu-Lys-(D-Phe)-COOH) [9-mer DF, 9-mer analogue, phenylalanine in D-form]”, for which the “reduction” value with Murine dry eye model [2] is given as “about 3 fold”. For the same substance, in the test with Murine dry eye model [3], the “tear volume (tear production)” value is on record as “significantly increased”. The “acanthosis, quantified epidermal thickness” value in test [4] came out at 35.7±4.2 μm. For the same substance, in test [1], the “hyperproliferation of keratinocytes, BrdU-positive cells in the epidermis (labeling index)” value is recorded as 6.3±1.2%.

In the case of “NH2-Asp-Ile-Thr-Tyr-Val-Arg-Leu-Lys-Ala-COOH (DITYVRLKA; not fully specified (N-terminus, C-terminus); printed as NH2-Asp-Ile-Thr-Tyr-Val-Arg-Leu-Lys-Ala-COOH) [9-mer Fa, 9-mer analogue, phenylalanine replaced by alanine]”, the “myeloma RPMI 8226 cell viability (MTT assay)” value with myeloma RPMI 8226 cell is “sustain part of the inhibitory activity”. Further, the “reduction” value with Murine dry eye model [2] is on record as “about 3 fold”. Also, the “tear volume (tear production)” value with Murine dry eye model [3] is on record as “significantly increased”.

On to “NH2-Ile-Thr-Tyr-Val-Arg-Leu-Lys-Ala-COOH (ITYVRLKA; not fully specified (N-terminus, C-terminus); printed as NH2-Ile-Thr-Tyr-Val-Arg-Leu-Lys-Ala-COOH) [8-mer, control 8-mer peptide, aspartate residue of the 9-mer deleted]”, for which the “corneal fluorescein stain (corneal damage), result in words” value with Murine dry eye model [2] (vs vehicle) is “no such effect”.

The record behind these values is US10875891B2, “Short synthetic peptide and uses thereof” (MacKay Memorial Hospital, priority 2018, dated 2020).
